Laboratory results published in patent US8759372B2, “N-(5S,6S,9R)-amino-6-(2,3-difluorophenyl)-6,7,8,9-tetrahydro-5H-ctclohepta[b]Pyridin-9-yl-4-(2-oxo-2,3-dihydro-1H-imidazo[4,5-b]pyridin-1-carboxylate salt” (Bristol-Myers Squibb Company, priority 2012, dated 2014).
Counter-ions that a name gives are not always drawn. Like-named read-outs stand apart in the source and are kept apart here.

Assays:
[1] = Solid state stability study; format: physicochemical
Protocol: The solid state stability of Example 1 was tested by exposing samples to various temperature and relative humidity conditions for periods of 1, 2, and 4 weeks.

[2] = Moisture sorption isotherm; format: physicochemical; conditions: for moisture sorption weight gain: 25° C.
Protocol: Example 1 has moisture sorption weight gains of 0.8 weight % and 2.8 weight % between 25% and 75% relative humidity and 5% and 95% relative humidity, respectively.
Moisture sorption isotherms were collected in a VTI SGA-100 Symmetric Vapor Analyzer using approximately 10 mg of sample. The sample was dried at 60° C. until the loss rate of 0.0005 wt %/min was obtained for 10 minutes. The sample was tested at 25° C. and 3 or 4, 5, 15, 25, 35, 45, 50, 65, 75, 85, and 95% RH. Equilibration at each RH was reached when the rate of 0.0003 wt %/min for 35 minutes was achieved or a maximum of 600 minutes.

[3] = Salt screen and crystalline salt characterization; format: physicochemical; conditions: for hygroscopicity: ambient temperature and relative humidity conditions, Hemisulfate Salt
Protocol: High throughput crystallization was employed to screen for the formation of crystalline salts of Compound (I). The screening examined acid type, acid level (equivalents), and/or type of crystallization solvent. Each plate contained 96 well plates (8 rows of 12 columns per plate).
A solution was prepared by dissolving 400 mg of Compound (I) in a mixture of 36 ml THF and 4 mL H2O. The solution ([…]) was transferred to 24 vials. To each vial was added 0.25 M EtOH stock solutions of the following acids:
The content of each vial was transferred to 12 crystallization wells and evaporated to dryness. Upon evaporation, each well was charged with 100 μl of solvent using a robotic liquid handler. The following crystallization solvents were tested: methyl isobutyl ketone (MIBK), ethyl acetate, toluene, THF, acetonitrile, acetone, isopropanol, ethanol, methanol, 1,2-dichloroethylene, isopropanol/water (50:50), and water. Next, the plates were sealed with Teflon septa and subjected to temperature cycling. The plates were maintained at 50° C. for 10 hours and then allowed to cool to room temperature over a period of 14 hours. After the heating/cooling cycle, the contents of the wells were characterized by birefringent imaging. Perceived crystalline hits were further characterized by PXRD analysis.

[4] = Water activity studies between crystalline forms; format: physicochemical
Protocol: Form P22C: prepared by heating Form H1.5-1 at 60° C. for 2 hours or at 75° C. for 5 minutes.
Form P33: Form H1.5-1 converted to Form P33 between 50° C. and 75° C. in variable temperature PXRD experiment. Also observed after Form H1.5-1 was heated to 105° C. for 5 minutes, or prepared by slurring dry powder Form H1.5-1 in dry EtOH or IPAc. […] Form P35: Prepared from slurry of Form H1.5-1 in dry MeOH under molecular sieves (7% RH). Converted to Form P33 when dried at 60° C. Stability in Water Slurry

[5] = Stability in water slurry; format: physicochemical; conditions: room temperature, two days
Protocol: An aqueous slurry of Example 1 was prepared and stored at room temperature.

[6] = In vivo pharmacokinetic study in humans with and without famotidine pretreatment; conditions: for AUC(0-inf) / Cmax / half-life / Tmax: human, plasma; for AUC(0-inf) / Cmax / half-life / Cl/F: (%); for Tmax: read-out: Tmax Median
Protocol: An in vivo study was conducted comparing the pharmacokinetics of the free base Compound (I) in humans pretreated with 40 mg of famotidine with non-pretreated humans.
Compound (I) in human EDTA plasma was analyzed using liquid-liquid extraction with uHPLC-MS/MS detection on a Triple Quad 5500 mass spectrometer. The method utilized stable isotope labeled [^13C2, D4]-Compound (I) as the internal standard. After the addition of 50 μL of 100 ng/mL [^13C2, D4]-Compound (I) in MeOH:water (20/80) and of 50 μL 1M NH4OAc containing 4% acetic acid buffer solution to 0.100 mL of each study sample, quality control (QC) sample, and calibration standard, the samples were extracted with 600 μL methyl tert-butyl ether (MTBE) by shaking for 15 min. A 450 μL portion of the organic layer was removed and evaporated to dryness. The residue was reconstituted in 200 μL of the reconstitution solution (30% acetonitrile in 10 mM NH4OAc with 0.01% acetic acid). All liquid transfer steps were performed using a Perkin Elmer JANUS Mini® liquid handler except for the addition of the internal standard solution. A 10 μL aliquot of the extracted sample was injected to uHPLC-MS/MS system. The uHPLC was performed on a LEAP 4X Ultra uHPLC system with LEAP HTC PAL autosampler. Mobile phase A contained 10 mM NH4OAc and 0.01% acetic acid in ACN/water (10:90), and mobile phase B contained 10 mM NH4OAc and 0.01% acetic acid in ACN/water (90:10). Chromatographic separation was achieved on an Acquity® uHPLC BEH C18 column (1.7 μm, 2.1×50 mm) with an isocratic elution from 0-1.5 min consisted of 28% Mobile Phase B for analysis of Compound (I), then with a gradient elution consisted of a linear increase from 28% B to 100% B in 0.1 min, then maintaining it at 100% B for 1.1 min for washing out the column. The gradient was then returned to 28% B within 0.1 min, and maintained at 28% for 0.9 min with a total run time of 3.7 min. The flow rate was 0.6 mL/min and column temperature was maintained at 60° C. condition. Detection was accomplished using an AB Sciex Triple Quad 5500 mass spectrometer in positive ESI with turbo ion spray ionization and using multiple reaction monitoring (MRM) mode. The MRM transitions were m/z 535→256 for Compound (I) and m/z 541→256 for [^13C2, D4]-Compound (I). Data acquisition and quantiation were performed using AB Sciex Analyst® 1.5.1 software. The standard curve, which ranged from 0.500-500 ng/ml for Compound (I), was fitted to a 1/x2 weighted linear regression model. During sample analysis, four levels of analytical quality control (QC) samples representing low, geometric-mean, medium, and high concentrations of Compound (I) prepared in human EDTA plasma were analyzed in 4 replicates at each concentration level for each analytical run. The results from these QC samples were used to accept or reject the analytical runs containing study samples based on the acceptance criteria established a priori for the analysis of Compound (I) in human EDTA plasma.

[7] = Dissolution rate in aqueous medium; format: physicochemical; conditions: pH 1 and 5 versus pH 7
Text: The dissolution rate of Compound (I) is dependent on the pH of the aqueous medium. […] The normal pH of the stomach is 1.2 to 1.8 according to […], Clinical Analysis, Chapter 32, in Remington: The Science and Practice of Pharmacy 20th Edition, A. R. Gennaro, editor; 2000, Lippinocott Williams & Wilkins, Baltimore, Md. However, patients often take other medications that can raise the pH of the stomach, including antacids, proton pump inhibitors, and H2-receptor antagonists such as famotidine, which can lower the dissolution rate of Compound (I).

[8] = 25 RH/60° C. (first line, r9), 2 weeks
[9] = 25 RH/60° C. (first line, r9), 4 weeks
[10] = 25 RH/60° C. (first of three lines printed alike, r9), 1 week
[11] = 25 RH/60° C. (second line, r11), 1 week
[12] = 25 RH/60° C. (second line, r11), 2 weeks
[13] = 25 RH/60° C. (second line, r11), 4 weeks
[14] = 25 RH/60° C. (third line, r13), 1 week
[15] = 25 RH/60° C. (third line, r13), 2 weeks
[16] = 25 RH/60° C. (third line, r13), 4 weeks
[17] = HIL/UV (high-intensity light/ultraviolet), 1 week
[18] = HIL/UV (high-intensity light/ultraviolet), 2 weeks
[19] = humans, 150 mg Compound (I) oral with 40 mg Famotidine pretreatment
[20] = humans, 150 mg Compound (I) oral, no pretreatment
[21] = humans, 150 mg with 40 mg Famotidine relative to no pretreatment

N[C@@H]1c2cccnc2[C@H](OC(=O)N2CCC(n3c(=O)[nH]c4ncccc43)CC2)CC[C@H]1c1cccc(F)c1F [Example 1, (5S,6S,9R)-5-Amino-6-(2,3-difluorophenyl)-6,7,8,9-tetrahydro-5H-cyclohepta[b]pyridin-9-yl-4-(2-oxo-2,3-dihydro-1H-imidazo[4,5-b]pyridin-1-yl) piperidine-1-carboxylate, Hemisulfate Salt]
% potency [1, 8]: 96.8%
% total impurities [1, 8]: 0.27%
% potency [1, 9]: 96.9%
% total impurities [1, 9]: 0.27%
% potency [1, 10]: 94.4%
% total impurities [1, 10]: 0.27%
% potency [1, 11]: 95.1%
% total impurities [1, 11]: 0.27%
% potency [1, 12]: 98.5%
% total impurities [1, 12]: 0.27%
% potency [1, 13]: 97.0%
% total impurities [1, 13]: 0.27%
% potency [1, 14]: 101.6%
% total impurities [1, 14]: 0.28%
% potency [1, 15]: 102.6%
% total impurities [1, 15]: 0.27%
% potency [1, 16]: 110.0%
% total impurities [1, 16]: 0.27%
% potency [1, 17]: 100.7%
% total impurities [1, 17]: 0.27%
% potency [1, 18]: 96.9%
% total impurities [1, 18]: 0.27%
% potency ([1]; Initial): 98.5%
% total impurities ([1]; Initial): 0.27%
% potency ([1]; Refrigerated, 1 week): 98.0%
% total impurities ([1]; Refrigerated, 1 week): 0.29%
% potency ([1]; Refrigerated, 2 weeks): 96.5%
% total impurities ([1]; Refrigerated, 2 weeks): 0.27%
% potency ([1]; Refrigerated, 4 weeks): 105.7%
% total impurities ([1]; Refrigerated, 4 weeks): 0.27%
solid state stability ([1]; tested temperature and relative humidity conditions, four weeks of storage): stable under the tested storage conditions
moisture sorption weight gain ([2]; between 5% and 95% relative humidity): 2.8 weight %
moisture sorption weight gain ([2]; between 25% and 75% relative humidity): 0.8 weight %
hygroscopicity ([2]; moisture sorption isotherm at 25° C.): low or non-hygroscopic
hygroscopicity ([3]; listed as Sulfuric acid): low/non-
hygroscopicity ([3]; listed as hemisulfate salt of Compound (I)): low hygroscopicity
chemical stability ([3]; crystalline salt): chemically stable
physical stability ([3]; crystalline salt): physically stable
relative stability of crystalline forms ([4]; Form H1.5-1 versus Form P22C): more stable at >23% relative humidity
relative stability of crystalline forms ([4]; Form H1.5-1 versus Form P33): more stable at >23% relative humidity
chemical degradation in aqueous slurry [5]: no significant chemical degradation
stability of crystalline form in aqueous slurry (PXRD) [5]: stable in the aqueous slurry

N[C@@H]1c2cccnc2[C@H](OC(=O)N2CCC(n3c(=O)[nH]c4ncccc43)CC2)CC[C@H]1c1cccc(F)c1F [Compound (I), (5S,6S,9R)-5-amino-6-(2,3-difluorophenyl)-6,7,8,9-tetrahydro-5H-cyclohepta[b]pyridin-9-yl-4-(2-oxo-2,3-dihydro-1H-imidazo[4,5-b]pyridin-1-yl)piperidine-1-carboxylate]
AUC(0-inf) [6, 19]: 3060 ng·h/mL
Cmax [6, 19]: 259 ng/mL
half-life [6, 19]: 12.6 h
Tmax [6, 19]: 3 h
AUC(0-inf) [6, 20]: 7200 ng·h/mL
Cmax [6, 20]: 991 ng/mL
half-life [6, 20]: 12 h
Tmax [6, 20]: 2.5 h
change in AUC and Cmax ([6]; humans pretreated with 40 mg of famotidine compared to non-pretreated humans): significant reduction
Cl/F [6, 19]: 49 (28%) L/hr
Cl/F [6, 20]: 20.84 (75%) L/hr
F (AUCinf) [6, 21]: 42.5% (96%)
F (Cmax) [6, 21]: 26.2% (130%)
dissolution rate [7]: higher dissolution rate at pH values of 1 and 5 than at a pH value of 7
